Laboratory results taken from US20250051335A1, “TAU-TUBULIN KINASE (TTBK) INHIBITOR COMPOUNDS” (CONSEJO SUPERIOR DE INVESTIGACIONES CIENTÍFICAS (CSIC), priority 2021, published 2025).

Assays:
[1] = Permeability of the blood-brain barrier by PAMPA (porcine brain lipid); conditions: for Prediction of crossing the BBB: based on Ep correlated with 10 control drugs; for Papp at 2.5 h: pig, pH 7.4
[2] = target: recombinant human enzyme TTBK2(1-450) (Homo sapiens (Human), UniProt Q6IQ55); test: Enzymatic inhibition of TTBK2 (33P-ATP radiometric kinase assay); format: biochemical; conditions: recombinant human TTBK2(1-450), 0.005 mM ATP, 30 minutes at room temperature
Protocol: (§1) The final reaction mixture contains the peptide at a concentration of 0.3 mM, 10 mM magnesium acetate and 0.005 mM [33P-γ-ATP](50-1000 cpm/pmol). The reaction mixture is incubated for 30 minutes at room temperature and the reaction is stopped after the addition of 5 μl of orthophosphoric acid.

[3] = target: recombinant human enzyme TTBK1 (1-1321) (Homo sapiens (Human), UniProt Q5TCY1); test: Enzymatic inhibition of TTBK1 (33P-ATP radiometric kinase assay); format: biochemical; conditions: recombinant human TTBK1 (1-1321), 0.005 mM ATP, 30 minutes at room temperature
Protocol: as §1

Chain of recombinant human enzyme TTBK1 (1-1321) (Q5TCY1 whole entry): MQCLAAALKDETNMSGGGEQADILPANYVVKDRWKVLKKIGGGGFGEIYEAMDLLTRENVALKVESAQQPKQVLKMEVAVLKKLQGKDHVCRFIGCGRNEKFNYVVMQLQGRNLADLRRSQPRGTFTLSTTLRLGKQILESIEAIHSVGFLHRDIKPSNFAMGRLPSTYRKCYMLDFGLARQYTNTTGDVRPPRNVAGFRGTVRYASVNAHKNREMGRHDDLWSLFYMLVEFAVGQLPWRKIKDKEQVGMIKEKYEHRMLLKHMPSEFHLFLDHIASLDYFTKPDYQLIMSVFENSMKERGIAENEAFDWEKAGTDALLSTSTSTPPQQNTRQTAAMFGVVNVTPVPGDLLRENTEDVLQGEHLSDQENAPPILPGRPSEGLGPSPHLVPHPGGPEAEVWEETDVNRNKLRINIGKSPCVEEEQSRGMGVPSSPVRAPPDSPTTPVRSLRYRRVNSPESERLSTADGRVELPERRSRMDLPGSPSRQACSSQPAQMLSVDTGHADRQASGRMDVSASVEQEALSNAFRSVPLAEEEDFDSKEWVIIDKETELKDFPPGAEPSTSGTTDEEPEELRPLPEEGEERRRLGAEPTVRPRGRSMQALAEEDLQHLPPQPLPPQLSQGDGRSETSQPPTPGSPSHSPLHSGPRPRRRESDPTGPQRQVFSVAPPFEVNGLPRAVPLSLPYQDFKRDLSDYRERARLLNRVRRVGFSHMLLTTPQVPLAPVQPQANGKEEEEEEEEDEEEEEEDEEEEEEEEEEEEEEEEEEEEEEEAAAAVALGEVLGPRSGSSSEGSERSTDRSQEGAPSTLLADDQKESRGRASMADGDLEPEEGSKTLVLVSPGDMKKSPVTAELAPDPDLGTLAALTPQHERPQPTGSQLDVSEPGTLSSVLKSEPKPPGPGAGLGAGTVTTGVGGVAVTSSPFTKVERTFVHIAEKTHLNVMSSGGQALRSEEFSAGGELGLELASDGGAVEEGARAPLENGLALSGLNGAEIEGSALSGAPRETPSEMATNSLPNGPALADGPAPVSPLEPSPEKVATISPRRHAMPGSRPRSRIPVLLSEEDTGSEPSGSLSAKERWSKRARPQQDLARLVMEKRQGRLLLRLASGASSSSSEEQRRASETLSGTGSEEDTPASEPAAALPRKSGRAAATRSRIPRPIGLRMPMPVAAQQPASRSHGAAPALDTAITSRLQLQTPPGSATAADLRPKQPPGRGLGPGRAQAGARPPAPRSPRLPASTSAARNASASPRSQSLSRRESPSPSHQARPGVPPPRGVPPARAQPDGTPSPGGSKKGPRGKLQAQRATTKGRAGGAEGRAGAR
Chain of recombinant human enzyme TTBK2(1-450) (Q6IQ55 1-450): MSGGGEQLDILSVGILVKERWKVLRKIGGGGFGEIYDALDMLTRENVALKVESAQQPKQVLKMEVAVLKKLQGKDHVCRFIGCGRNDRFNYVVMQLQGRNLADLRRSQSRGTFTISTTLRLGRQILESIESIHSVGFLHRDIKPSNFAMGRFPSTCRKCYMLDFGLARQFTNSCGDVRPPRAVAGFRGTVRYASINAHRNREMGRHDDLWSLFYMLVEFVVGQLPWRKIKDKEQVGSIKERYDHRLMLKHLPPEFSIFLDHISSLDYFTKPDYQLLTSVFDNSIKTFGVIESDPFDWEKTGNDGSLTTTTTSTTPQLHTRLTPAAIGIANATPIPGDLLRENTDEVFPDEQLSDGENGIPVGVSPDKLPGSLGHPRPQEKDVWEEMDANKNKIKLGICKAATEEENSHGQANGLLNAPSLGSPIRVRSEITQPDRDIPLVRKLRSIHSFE

Structure (SMILES) | Prediction of crossing the BBB [1] | Papp at 2.5 h [1] [×10⁻⁶ cm/s] | IC50 [2] [µM] | IC50 [3] [µM]
c1ccc(Oc2ccc(Nc3ncnc4[nH]ccc34)cc2)cc1 [Compound 1, N-(4-phenoxyphenyl)-7H-pyrrolo[2,3-d]pyrimidin-4-amine] | CNS+ | 23.2 ± 1.4 | – | –
Clc1ccc(Oc2ccc(Nc3ncnc4[nH]ccc34)cc2)cc1 [Compound 2, N-[4-(4-chlorophenoxy)phenyl]-7H-pyrrolo[2,3-d]pyrimidin-4-amine] | CNS+ | 11.5 ± 1 | – | –
Fc1ccc(Oc2ccc(Nc3ncnc4[nH]ccc34)cc2)cc1 [Compound 3, N-[4-(4-fluorophenoxy)phenyl]-7H-pyrrolo[2,3-d]pyrimidin-4-amine] | CNS+ | 15.6 ± 1.3 | 3.02 ± 0.82 | 0.77 ± 0.14
COc1ccc(Oc2ccc(Nc3ncnc4[nH]ccc34)cc2)cc1 [Compound 5, N-[4-(4-methoxyphenoxy)phenyl]-7H-pyrrolo[2,3-d]pyrimidin-4-amine] | CNS+ | 11.8 ± 0.3 | – | –
FC(F)(F)c1ccc(Oc2ccc(Nc3ncnc4[nH]ccc34)cc2)cc1 [Compound 6, N-[4-(4-trifluoromethylphenoxy)phenyl]-7H-pyrrolo[2,3-d]pyrimidin-4-amine] | CNS+ | 7.6 ± 1.4 | – | –
Brc1ccc(Oc2ccc(Nc3ncnc4[nH]ccc34)cc2)cc1 [Compound 7, N-[4-(4-bromophenoxy)phenyl]-7H-pyrrolo[2,3-d]pyrimidin-4-amine] | CNS+ | 11 ± 1.2 | – | –
O=[N+]([O-])c1ccc(Oc2ccc(Nc3ncnc4[nH]ccc34)cc2)cc1 [Compound 8, N-[4-(4-nitrophenoxy)phenyl]-7H-pyrrolo[2,3-d]pyrimidin-4-amine] | CNS+ | 14.3 ± 1.1 | – | –
Cc1ccc(Oc2ccc(Nc3ncnc4[nH]ccc34)cc2)cc1 [Compound 10, N-[4-(4-methylphenoxy)phenyl]-7H-pyrrolo[2,3-d]pyrimidin-4-amine] | CNS+ | 18.7 ± 1.4 | – | –
Cc1cccc(Oc2ccc(Nc3ncnc4[nH]ccc34)cc2)c1 [Compound 11, N-[4-(3-methylphenoxy)phenyl]-7H-pyrrolo[2,3-d]pyrimidin-4-amine] | CNS+ | 14 ± 0.4 | – | –
Clc1cccc(Oc2ccc(Nc3ncnc4[nH]ccc34)cc2)c1 [Compound 12, N-[4-(3-chlorophenoxy)phenyl]-7H-pyrrolo[2,3-d]pyrimidin-4-amine] | CNS+ | 8.4 ± 1.6 | > 100 | –
FC(F)(F)c1cccc(Oc2ccc(Nc3ncnc4[nH]ccc34)cc2)c1 [Compound 13, N-[4-(3-trifluoromethylphenoxy)phenyl]-7H-pyrrolo[2,3-d]pyrimidin-4-amine] | CNS+ | 6.8 ± 1.4 | – | –
Clc1ccccc1Oc1ccc(Nc2ncnc3[nH]ccc23)cc1 [Compound 14, N-[4-(2-chlorophenoxy)phenyl]-7H-pyrrolo[2,3-d]pyrimidin-4-amine] | CNS+ | 9.7 ± 1 | – | –
Clc1ccc(Oc2ccc(Nc3ncnc4[nH]ccc34)cc2)c(Cl)c1 [Compound 16, N-[4-(2.4-chlorophenoxy)phenyl]-7H-pyrrolo[2,3-d]pyrimidin-4-amine] | CNS+ | 17.3 ± 0.1 | 5.72 ± 2.65 | 2.3 ± 0.54
COc1cccc(Oc2ccc(Nc3ncnc4[nH]ccc34)cc2)c1 [Compound 17, N-[4-(3-methoxyphenoxy)phenyl]-7H-pyrrolo[2,3-d]pyrimidin-4-amine] | CNS+ | 10.5 ± 0.7 | – | –
Nc1nc(Nc2ccc(Oc3ccc(C(F)(F)F)cc3)cc2)c2cc[nH]c2n1 [Compound 18, N4-(4-(4-(trifluoromethyl)phenoxy)phenyl]-7H-pyrrolo[2,3-d]pyrimidine-2,4-diamine] | CNS+ | 7.5 ± 0.1 | 4.49 ± 1.16 | 0.58 ± 0.08
Nc1nc(Nc2ccc(Oc3cccc(C(F)(F)F)c3)cc2)c2cc[nH]c2n1 [Compound 19, N4-(4-(3-(trifluoromethyl)phenoxy)phenyl]-7H-pyrrolo[2,3-d]pyrimidine-2,4-diamine] | CNS+ | 7.7 ± 0.6 | 3.9 ± 0.48 | 1.32 ± 0.04
Nc1nc(Nc2ccc(Oc3ccc(Cl)cc3)cc2)c2cc[nH]c2n1 [Compound 20, N4-(4-(4-chlorophenoxy)phenyl]-7H-pyrrolo[2,3-d]pyrimidine-2,4-diamine] | CNS+ | 9.7 ± 1 | – | –
Nc1nc(Nc2ccc(Oc3cccc(Cl)c3)cc2)c2cc[nH]c2n1 [Compound 21, N4-(4-(3-chlorophenoxy)phenyl)-7H-pyrrolo[2,3-d]pyrimidine-2,4-diamine] | CNS+ | 14.1 ± 0.4 | 3.05 ± 0.07 | 0.37 ± 0.12
Nc1ccc(Sc2ccc(Nc3ncnc4[nH]ccc34)cc2)cc1 [Compound 23, N-[4-((4-aminophenyl)thio)phenyl]-7H-pyrrolo[2,3-d]pyrimidin-4-amine] | CNS+ | 4.7 ± 0.5 | – | –
c1ccc(COc2ccc(Nc3ncnc4[nH]ccc34)cc2)cc1 [Compound 24, N-[4-(benzyloxy)phenyl]-7H-pyrrolo[2,3-d]pyrimidin-4-amine] | CNS+ | 18.3 ± 1.2 | – | –
O=C(c1ccccc1)c1ccc(Nc2ncnc3[nH]ccc23)cc1 [Compound 25, (4-((7H-pyrrolo[2,3-d]pyrimidin-4-yl)amino)phenyl](phenyl)methanone] | CNS+ | 6.9 ± 0.6 | – | –
O=C(c1ccc(F)cc1)c1ccc(Nc2ncnc3[nH]ccc23)cc1 [Compound 26, (4-((7H-pyrrolo[2,3-d]pyrimidin-4-yl)amino)phenyl](4-fluorophenyl)methanone] | CNS+ | 9.4 ± 0.4 | – | –
